Results published in patent publication US10473645B2, “Methods for identifying a receptor for a ligand and uses thereof” (UNIVERSITE DE GENEVE, priority 2014, dated 2019).

Assays:
OR82a [1] = target: T1, OR82a (Drosophila melanogaster, UniProt P82986); test: Drosophila OR transcript level by RT-qPCR after odorant exposure; type: in vivo, Drosphila melanogaster; design: from tissue; host or cells: olfactory neurons of living W1118 flies (heads / antennae collected for RNA); details: 5% odorant in DMSO, 5 hours, fly heads
T1 sequence (P82986 whole entry): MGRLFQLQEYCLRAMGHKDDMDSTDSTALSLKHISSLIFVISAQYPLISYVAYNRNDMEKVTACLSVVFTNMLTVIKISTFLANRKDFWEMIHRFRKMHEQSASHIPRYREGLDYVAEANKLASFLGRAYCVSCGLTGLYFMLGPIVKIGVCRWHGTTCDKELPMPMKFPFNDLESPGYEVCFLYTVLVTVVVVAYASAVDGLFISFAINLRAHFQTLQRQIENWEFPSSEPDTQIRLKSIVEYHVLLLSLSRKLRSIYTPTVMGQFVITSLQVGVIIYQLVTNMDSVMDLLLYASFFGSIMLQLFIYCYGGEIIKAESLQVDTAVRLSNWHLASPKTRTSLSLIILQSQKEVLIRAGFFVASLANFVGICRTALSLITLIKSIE
T1 sequence (Q9VNB5 whole entry partner): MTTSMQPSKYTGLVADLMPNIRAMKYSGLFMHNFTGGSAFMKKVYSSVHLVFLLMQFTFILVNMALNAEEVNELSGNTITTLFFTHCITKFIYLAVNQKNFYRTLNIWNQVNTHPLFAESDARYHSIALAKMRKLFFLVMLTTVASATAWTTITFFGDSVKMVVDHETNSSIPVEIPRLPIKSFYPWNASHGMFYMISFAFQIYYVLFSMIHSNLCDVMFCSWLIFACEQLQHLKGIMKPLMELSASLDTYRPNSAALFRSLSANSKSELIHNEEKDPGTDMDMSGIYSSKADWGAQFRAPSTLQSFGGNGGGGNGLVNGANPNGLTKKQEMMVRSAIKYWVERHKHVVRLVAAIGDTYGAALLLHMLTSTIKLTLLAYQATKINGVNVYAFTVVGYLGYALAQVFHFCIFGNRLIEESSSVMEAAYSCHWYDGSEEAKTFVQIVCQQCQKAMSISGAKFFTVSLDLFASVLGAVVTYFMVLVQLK
Method: (§1) Drosophila (W1118) were collected between 0 and 14 hours after hatching. Males and females were exposed separately.
(§2) For flies, after exposure, vials containing the animals were placed upside down in a −80° C. freezer for five minutes, then kept in a −20° C. freezer until dissection. Whole heads were removed by hand and placed in a screw-cap tube containing 1 ml of Trizol (Ambion) and a 0.5 cm diameter steel ball, and kept on ice. Samples were homogenized using four runs of 15 s at 6 m/s on a FastPrep®-24 instrument (MP Biomedicals).
(§3) Samples were cooled on ice between each run. RNA extraction followed the Trizol protocol according to the manufacturer instructions, and using 5 μg of RNase-free glycogen as carrier for RNA precipitation. The RNA pellet was resuspended in 20 μl of RNase-free water and a DNAse treatment (Life Technologies Ambion DNase I®) was performed.
(§4) 24 hours-old Drosphila melanogaster flies were kept in plastic tubes and exposed to either 5% ethyl lactate diluted in DMSO or to 5% geranyl acetate diluted in DMSO. The odorants were spotted on papers that were introduced into the plastic tubes. 10 flies were used per condition (8 independent extracts per condition). 5 hours after exposure heads were collected and RNA extracted.
(§5) The transcript levels for Or67c (a known receptor for ethyl lactate) and Or82a (a known receptor for geranyl acetate) were evaluated by RT-qPCR.

OR82a [2] = target: T1, OR82a; details: Hallem and Carlson, 2006; cited from earlier work
OR67c [3] = target: T2, OR67c (Drosophila melanogaster, UniProt Q9VT90); details: Hallem and Carlson, 2006; cited from earlier work
T2 sequence (Q9VT90 whole entry): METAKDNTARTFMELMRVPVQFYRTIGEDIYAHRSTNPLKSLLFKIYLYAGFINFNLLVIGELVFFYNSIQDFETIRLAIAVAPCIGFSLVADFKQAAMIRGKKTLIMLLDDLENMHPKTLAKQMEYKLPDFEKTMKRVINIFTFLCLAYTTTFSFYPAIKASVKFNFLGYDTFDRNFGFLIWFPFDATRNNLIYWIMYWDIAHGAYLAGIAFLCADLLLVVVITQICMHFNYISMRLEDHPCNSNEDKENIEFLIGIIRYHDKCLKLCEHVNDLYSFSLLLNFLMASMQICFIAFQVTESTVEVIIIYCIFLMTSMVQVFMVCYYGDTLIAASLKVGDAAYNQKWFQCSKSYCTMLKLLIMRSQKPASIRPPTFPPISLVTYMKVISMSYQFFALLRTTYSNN
T2 sequence (Q9VNB5 whole entry partner): as the sequence (Q9VNB5 whole entry partner) above

OR67c [4] = target: T2, OR67c; test: Drosophila OR transcript level by RT-qPCR after odorant exposure; type: in vivo, Drosphila melanogaster; design: from tissue; host or cells: olfactory neurons of living W1118 flies (heads / antennae collected for RNA); details: 5% odorant in DMSO, 5 hours, fly heads
Method: as §1, §2, §3, §4, §5

SMILES | Or82a mRNA level relative to control ORs (OR82a [1]) [×] | OR82a response previously shown (OR82a [2]) | OR67c response previously shown (OR67c [3]) | Or67c mRNA level relative to control ORs (OR67c [4]) [×]
CC(=O)OC/C=C(\C)CCC=C(C)C [geranyl acetate] | 0.6 | respond | – | –
CCOC(=O)C(C)O (stereo not shown) [ethyl lactate] | – | – | respond | 0.7
